Publication PMC12042115 (mLife, 2025)
Read-outs that look alike come from different tables or passages of the source.

System: wild‐type BCG cells
Assay type: cell-based, M. bovis BCG
Conditions: for Mean Ratio: GDI5755_2d vs DMSO_2d; for Mean Ratio / Mean Ratio (GDI5755_2d vs DMSO_2d): up-regulated; for Mean_Ratio (GDI5755_3d vs DMSO_3d): down-regulated, 3 d; for Mean Ratio (GDI5755_2d vs DMSO_2d): 2d

O=C(Oc1ccc(Cl)cc1)c1ccc(N2CCOCC2)c([N+](=O)[O-])c1 [GDI‐5755]
Mean Ratio (protein A1KKK9 Transcriptional regulator MraZ): 1.25
Mean_Ratio (GDI5755_3d vs DMSO_3d) (protein A1KKR8, BCG_2242 (Rv2225), 3-methyl-2-oxobutanoate hydroxymethyltransferase): 0.748
Mean_Ratio (GDI5755_3d vs DMSO_3d) (protein A1KLF3, BCG_2477c (Rv2457c), ATP-dependent Clp protease ATP-binding subunit ClpX): 0.743
Mean_Ratio (GDI5755_3d vs DMSO_3d) (protein A1KLT2, BCG_2607c (Rv2584c), Adenine phosphoribosyltransferase): 0.7
Mean_Ratio (GDI5755_3d vs DMSO_3d) (protein A1KMA6, BCG_2781c (Rv2764c), Thymidylate synthase): 0.7
Mean Ratio (GDI5755_2d vs DMSO_2d) (protein A1KNI8 UPF0182 protein BCG_3215c): 1.34
Mean Ratio (protein A1KNQ0 Adenosylhomocysteinase): 1.26
Mean_Ratio (GDI5755_3d vs DMSO_3d) (protein A1KQ47, BCG_3775c (Rv3715c), Recombination protein RecR): 0.7
Mean Ratio (GDI5755_2d vs DMSO_2d) (protein BCG_0095 A1KEN2 UPF0182 protein): 1.41
Mean Ratio (GDI5755_2d vs DMSO_2d) (protein BCG_0108c A0A0H3M9Q4 Probable oxidoreductase): 1.77
Mean Ratio (GDI5755_2d vs DMSO_2d) (protein BCG_0130 A0A0H3M0N8 Possible oxidoreductase): 1.72
Mean Ratio (GDI5755_2d vs DMSO_2d) (protein BCG_0132 A0A0H3M2I5 Possible fatty-acid-CoA ligase fadD10): 1.49
Mean Ratio (GDI5755_2d vs DMSO_2d) (protein BCG_0178 A0A0H3M7D0 DNA glycosylase): 1.58
Mean Ratio (GDI5755_2d vs DMSO_2d) (protein BCG_0181 A1KEW5 Putative S-adenosyl-L-methionine-dependent methyltransferase): 2.17
Mean Ratio (GDI5755_2d vs DMSO_2d) (protein BCG_0182 A1KEW6 Putative S-adenosyl-L-methionine-dependent methyltransferase): 2.71
Mean Ratio (GDI5755_2d vs DMSO_2d) (protein BCG_0228 A0A0H3MA02 Probable conserved integral membrane protein): 1.46
Mean Ratio (GDI5755_2d vs DMSO_2d) (protein BCG_0248 A1KF31 Phosphoenolpyruvate carboxykinase [GTP],pckG): 1.87
Mean Ratio (GDI5755_2d vs DMSO_2d) (protein BCG_0282c A0A0H3M7K8 Probable acyl-CoA dehydrogenase fadE5): 1.45
Mean Ratio (GDI5755_2d vs DMSO_2d) (protein BCG_0289c A0A0H3MA45 HSP20 family protein/ Heat stress induced ribosome-binding protein A,acr2): 3.46
Mean Ratio (GDI5755_2d vs DMSO_2d) (protein BCG_0353 A0A0H3M1Y1 Transmembrane protein): 1.84
Mean Ratio (GDI5755_2d vs DMSO_2d) (protein BCG_0380 A0A0H3MAC3 Isoniazid inductible gene protein iniB): 1.73
Mean Ratio (GDI5755_2d vs DMSO_2d) (protein BCG_0389 A1KFH2 Chaperone protein DnaK): 1.52
Mean Ratio (GDI5755_2d vs DMSO_2d) (protein BCG_0390 A1KFH3 Protein GrpE): 1.53
Mean Ratio (GDI5755_2d vs DMSO_2d) (protein BCG_0391 A0A0H3M380 Chaperone protein DnaJ): 1.51
Mean Ratio (GDI5755_2d vs DMSO_2d) (protein BCG_0422c A0A0H3M7W9 Chaperone protein ClpB): 1.56
Mean Ratio (GDI5755_2d vs DMSO_2d) (protein BCG_0465c A0A0H3M812 Possible transmembrane protein): 1.45
Mean Ratio (GDI5755_2d vs DMSO_2d) (protein BCG_0490c A0A0H3M1K6 Probable conserved membrane protein mmpS4): 1.45
Mean Ratio (GDI5755_2d vs DMSO_2d) (protein BCG_0494c A0A0H3M296 DUF5078 domain-containing protein): 1.52
Mean Ratio (GDI5755_2d vs DMSO_2d) (protein BCG_0507 A0A0H3M3L9 isocitrate lyase): 1.56
Mean Ratio (GDI5755_2d vs DMSO_2d) (protein BCG_0517 A0A0H3M881 Possible conserved transmembrane protein): 1.43
Mean Ratio (GDI5755_2d vs DMSO_2d) (protein BCG_0565 A0A0H3M3T9 Probable gaba permease gabP (4-amino butyrate transport carrier)): 1.46
Mean Ratio (GDI5755_2d vs DMSO_2d) (protein BCG_0578c A0A0H3M3U8 1,4-dihydroxy-2-naphthoate octaprenyltransferase): 1.66
Mean Ratio (GDI5755_2d vs DMSO_2d) (protein BCG_0605c A1KG37 2-heptyl-1-hydroxyquinolin-4(1H)-one methyltransferase): 2.76
Mean Ratio (GDI5755_2d vs DMSO_2d) (protein BCG_0614 A0A0H3M8E5 DUF1918 domain-containing protein): 1.43
Mean Ratio (GDI5755_2d vs DMSO_2d) (protein BCG_0623c A0A0H3M1W6 PE-PGRS family protein): 1.87
Mean Ratio (GDI5755_2d vs DMSO_2d) (protein BCG_0725c A0A0H3MAX0 Probable conserved transmembrane transport protein mmpL5): 1.69
Mean Ratio (GDI5755_2d vs DMSO_2d) (protein BCG_0727 A0A0H3M257 Transcriptional regulator): 1.43
Mean Ratio (GDI5755_2d vs DMSO_2d) (protein BCG_0761 A0A0H3M268 Possible arylsulfatase atsA): 1.61
Mean Ratio (GDI5755_2d vs DMSO_2d) (protein BCG_0776c A1KGK7 Putative S-adenosyl-L-methionine-dependent methyltransferase BCG_0776c): 1.55
Mean Ratio (GDI5755_2d vs DMSO_2d) (protein BCG_0835 A0A0H3M322 Deacetylase): 1.55
Mean Ratio (GDI5755_2d vs DMSO_2d) (protein BCG_0883 A1KGW3 Putative S-adenosyl-L-methionine-dependent methyltransferase BCG_0883): 1.87
Mean Ratio (GDI5755_2d vs DMSO_2d) (protein BCG_0969 A0A0H3M4Q4 Possible glycine betaine transport integral membrane protein betP): 1.64
Mean Ratio (GDI5755_2d vs DMSO_2d) (protein BCG_1053 A0A0H3M3P8 Uncharacterized protein): 1.56
Mean Ratio (GDI5755_2d vs DMSO_2d) (protein BCG_1115 A0A0H3M9F1 Uncharacterized protein): 1.90
Mean Ratio (GDI5755_2d vs DMSO_2d) (protein BCG_1130 A0A0H3M9G5 Probable conserved transmembrane protein): 1.64
Mean Ratio (GDI5755_2d vs DMSO_2d) (protein BCG_1191 A0A0H3M5B0 2-methylcitrate dehydratase): 1.57
Mean Ratio (GDI5755_2d vs DMSO_2d) (protein BCG_1249 A0A0H3M3D0 L-glutamate gamma-semialdehyde dehydrogenase): 1.49
Mean Ratio (GDI5755_2d vs DMSO_2d) (protein BCG_1281 A0A0H3M3F3 Alternative RNA polymerase sigma factor sigE): 1.41
Mean Ratio (GDI5755_2d vs DMSO_2d) (protein BCG_1309c A0A0H3M3H0 Possible membrane protein): 1.44
Mean Ratio (GDI5755_2d vs DMSO_2d) (protein BCG_1334 A0A0H3M3I9 Lipoprotein lprC): 1.55
Mean Ratio (GDI5755_2d vs DMSO_2d) (protein BCG_1404c A0A0H3M3N1 Conserved membrane protein): 1.78
Mean Ratio (GDI5755_2d vs DMSO_2d) (protein BCG_1574c A0A0H3M689 Probable conserved transmembrane transport protein mmpL12): 1.47
Mean Ratio (GDI5755_2d vs DMSO_2d) (protein BCG_1609 A0A0H3M480 Probable conserved transmembrane transport protein mmpL6): 1.85
Mean Ratio (GDI5755_2d vs DMSO_2d) (protein BCG_1660c A0A0H3M5A2 Probable integral membrane cytochrome D ubiquinol oxidase (Subunit II) cydB): 1.42
Mean Ratio (GDI5755_2d vs DMSO_2d) (protein BCG_1661c A0A0H3M4E4 Probable integral membrane cytochrome D ubiquinol oxidase (Subunit I) cydA): 1.57
Mean Ratio (GDI5755_2d vs DMSO_2d) (protein BCG_1890c A0A0H3MB87 Type II NADH dehydrogenase Ndh/Rv1854c): 1.53
Mean Ratio (GDI5755_2d vs DMSO_2d) (protein BCG_2010c A0A0H3M561 DUF1490 family protein): 1.88
Mean Ratio (GDI5755_2d vs DMSO_2d) (protein BCG_2056c A0A0H3MBM9 Possible conserved transmembrane protein): 1.52
Mean Ratio (GDI5755_2d vs DMSO_2d) (protein BCG_2072c A0A0H3M7M3 Probable transmembrane protein): 2.05
Mean Ratio (GDI5755_2d vs DMSO_2d) (protein BCG_2419c A0A0H3M8K8 Probable conserved lipoprotein lppR): 1.48
Mean Ratio (GDI5755_2d vs DMSO_2d) (protein BCG_2583 A0A0H3M7F6 Probable proline and glycine rich transmembrane protein): 1.73
Mean Ratio (GDI5755_2d vs DMSO_2d) (protein BCG_2657 A0A0H3M963 Archease domain-containing protein): 1.52
Mean Ratio (GDI5755_2d vs DMSO_2d) (protein BCG_2934c A0A0H3M896 Possible D-amino acid aminohydrolase): 1.77
Mean Ratio (GDI5755_2d vs DMSO_2d) (protein BCG_2965 A0A0H3MDP7 Probable transposase for insertion sequence element IS1533): 2.65
Mean Ratio (GDI5755_2d vs DMSO_2d) (protein BCG_3007c A0A0H3M7X4 DNA-binding protein HupB): 1.45
Mean Ratio (GDI5755_2d vs DMSO_2d) (protein BCG_3038 A0A0H3MA42 Probable lipoprotein lpqA): 1.97
